# Measurements taken from PubChem BioAssay AID1077 (Sanford-Burnham Center for Chemical Genomics, 2009).
# Target: Tyrosine-protein phosphatase non-receptor type 7 (Homo sapiens) (UniProt P35236)
# Test: inhibition of recombinant HePTP activity – biochemical, fluorescence, secondary assay, dose response (AID 1077)
# Conditions: fluorogenic substrate
# Tyrosine-protein phosphatase non-receptor type 7 (Homo sapiens), sequence (P35236 whole entry, looked up): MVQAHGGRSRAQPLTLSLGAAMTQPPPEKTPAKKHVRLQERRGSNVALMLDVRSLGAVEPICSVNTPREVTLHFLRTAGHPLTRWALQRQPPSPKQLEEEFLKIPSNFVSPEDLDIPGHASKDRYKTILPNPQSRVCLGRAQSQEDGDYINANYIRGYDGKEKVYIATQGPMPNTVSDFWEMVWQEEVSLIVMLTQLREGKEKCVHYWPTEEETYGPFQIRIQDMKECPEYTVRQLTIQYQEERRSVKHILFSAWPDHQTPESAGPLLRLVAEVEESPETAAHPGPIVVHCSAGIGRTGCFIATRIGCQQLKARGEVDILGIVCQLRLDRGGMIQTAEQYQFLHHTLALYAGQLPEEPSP
structure (smiles),measurement,value
CCOc1ccc2nc(NC(=O)CSC3=Nc4sc(C)c(C)c4C(=O)C3)sc2c1,IC50,15 µM
